Data published in patent publication US20140128337A1, “Curcuminoids in Combination Docetaxel for the Treatment of Cancer and Tumour Metastasis” (Institut National de la Sante et de la Recherche Medicale …, priority 2009, published 2014).
Blank lines part the entries; values can stand above or below the compound they belong to.

Tests used:
P-glycoprotein (Pgp) = target: T1, P-glycoprotein (Pgp) (Homo sapiens, UniProt P08183); assay: Inhibition of [3H]-VBL efflux by MDCK-MDR1 cells; format: cell-based; details: CV-3988 10 uM, 30-min pre-exposure
T1 construct: expressed in transfected cells; host or cells: MDCK (canine kidney) cells stably transfected with human MDR1
Description: Inhibition of [^3H]-VBL efflux by MDCK-MDR1 cells: [^3H]-VBL was determined by scintillation counting accordingly to (Barthomeuf et al. Cancer Chemother Pharmacol 2005; 56: 173-81). […] The cells were then exposed for 120 min to 20 nM of ^3H-VBL (0.23 μCi). ^3H-VBL accumulation was stopped by washing the cells (5-fold) with cold PBS (150 mM NaCl, 2.7 mM KCl, 1.3 mM KH2PO4, 8.1 mM, Na2HPO4, pH 7.4). The cells were lysed with 0.1% Triton X-100 and the radioactivity was counted.

[1] = test system: MDA-mb-468 breast carcinoma cells; assay: Cell proliferation, resazurin reduction test (RTT assay); format: cell-based, human
Description: (§1) Cell culture: Madine Darby canine kidney (MDCK-MDR1) cells, provided by Amanda Yancy (AstraZeneca Pharmaceuticals), were cultured in DMEM supplemented with 10% FBS as reported previously (Barthomeuf et al. 2005). Human primary fibroblasts were purchased from Biopredic International (Rennes, France). Human MCF7 (ER+breast), A549 (non small cell lung), PC3 (androgen-resistant prostate) DLD1 (colon), PA1 (ovary), MDA-mb-231 (ER-, PTEN positive), MDA-mb-468 (ER-, PTEN negative) carcinoma and U87 (glioblastoma) lines were purchased from the European Collection of Cell Cultures (ECACC,
(§2) Salibury, UK) or the American Type Culture Collection (ATCC, Manassas, Va.). Cells were cultured in modified Eagle's medium (MEM) supplemented with 10% fetal calf serum, 2 mM L-glutamine and 100 units/ml penicillin, and 100 μg/ml streptomycin (Barthomeuf et al. 2002) or MEM supplemented with 1 mM sodium pyruvate and containing 10% FBS and antibiotics (U-87). The cells were cultured at 37° C. under a humidified 95%-5% (v/v) mixture of air and CO2.
(§3) The drugs were administered in DMSO 0.5%. Cell proliferation and attachment to the matrix were determined by measuring the amount of resazurin reduced by esterases from living cells (RTT assay) and by measuring the amount of attached biomass with the DNA binding agent (Ho 33342). Fluorescence was assayed at 590/630 nm (RTT assay) or 360/460 nm (Ho assay) as described in (Barthomeuf et al. Planta Med 2002).
(§4) The human tested lines include highly invasive U87 glioblastoma cells (SphK1 overexpression), 5 human carcinoma lines: weakly invasive MCF7 (estrogen receptor (ER) and PTEN positive) and metastatic MDA-mb-468 (ER and PTEN lack of function) breast carcinoma cells, metastatic PC3 (androgen resistant, p53 loss of function) prostate carcinoma cells, highly proliferative PA1 ovarian carcinoma cells and DLD1 (Pgp-positive) colon carcinoma cells. Primary fibroblasts were used as a model of human non-tumoral cells. Assays were conducted on exponentially growing human cells cultured overnight in MEM supplemented with 10% FBS. […] This supports a value of curcumin/DTX combination for treatment of tumors displaying these characteristics.

[2] = test system: PA1 ovarian carcinoma cells; assay: as above; format: cell-based, human; details: curcumin 10 uM
Description: as §1, §2, §3, §4

primary fibroblasts = assay: as above; format: cell-based, human; details: curcumin 10 uM
Description: as §1, §2, §3, §4

[3] = test system: panel of cancer lines issued from human solid tumors; assay: Antiproliferative effect on a panel of cancer lines, resazurin reduction test; format: cell-based; details: curcumin 10 uM
Description: as §1
as §2, with “The cells were cultured at 37° C. under a humidified 95%-5% (v/v) mixture of air and CO2.” left out
as §3, with “2002). […]” for “2002).”

U87 glioblastoma cells = assay: Curcumin/DTX co-treatment, cell proliferation and survival; format: cell-based, human; details: curcumin 10 uM + DTX 1 nM, 48 h co-treatment
Description: as §1
as §2, with “The cells were cultured at 37° C. under a humidified 95%-5% (v/v) mixture of air and CO2.” left out
as §3

PAF synthesis = assay: PAF synthesis, incorporation of [3H]-acetate into lyso-PAF in MDCK-MDR1 cells; format: cell-based, canine; details: curcumin 30 min, doses observable in man
Description: PAF synthesis: PAF synthesis was measured by incorporation of [^3H]-acetate into lyso-PAF accordingly to the protocol described in (Bernatchez PN et al. Br. J. Pharmacol. 2001 134: 1252-1262 and Barthomeuf C. et al. Free Rad Biol Med 2006, 40: 581-590). […] The reaction was stopped by addition of acidified methanol. Polar lipids were isolated according to Bligh and Dyer. After solvent evaporation under N2, ^3H-PAF was purified by HPLC on silica gel, and quantified by radioactivity counting vs authentic ^3H-PAF.

HIF-1α = assay: Western blot of HIF-1α in MCF7 cells; format: cell-based, human
Description: Western blot: After treatment, control and treated cells were washed with PBS, then incubated in PBS containing 1 mM of each NaF and Na3VO4 and solubilized on ice in lysis buffer [150 mM NaCl, 10 mM Tris-HCl, pH 7.4, 1 mM EDTA, 1 mM EGTA, 1 mM NaF, 1 mM Na3VO4, 0.5% (v/v) Nonidet P-40, and 1% (v/v) Triton X-100] or in FosRipa buffer (10 mM Tris/HCl pH 7.5, 250 mM NaCl, 0.1% SDS, 1% Nonidet P40, 1% sodium deoxycholate). […] Protein concentrations and Western blotting was performed according to standard procedures. […] Mouse monoclonal antisera directed against HIF-1α or survivin were used as primary antibodies and horseradish peroxidase-coupled anti-mouse (Dako) as secondary antibodies.
Then HIF-1α was assessed by Western blotting.

[4] = test system: advanced colorectal cancer; details: 36-180 mg/day; cited from earlier work
MCF7 cells = assay: MCF7 cell survival, Ho assay; format: cell-based, human; details: DTX 5 uM (clinical dose), 72 h, P<0.01
Description: as §3
Treatment by DTX at clinical dose contributes to induction of drug resistance. […] We finally examined the effect of DTX on MCF7 cell survival and HIF-1 transcription. In this aim, DTX was tested at 2 concentrations 1 nM and 5 uM (a concentration representative of blood levels after DTX administration, Investigator Brochure 2002). Al tests were carried out on highly proliferative cells cultured in MEM medium supplemented with 10% FBS. Survival was assayed with the Ho assay after 6 h and 72 h.

survivin = assay: Western blot of survivin in MCF7 cells; format: cell-based, human; details: MCF7, DTX at clinical doses
Description: Western blot: After treatment, control and treated cells were washed with PBS, then incubated in PBS containing 1 mM of each NaF and Na3VO4 and solubilized on ice in lysis buffer [150 mM NaCl, 10 mM Tris-HCl, pH 7.4, 1 mM EDTA, 1 mM EGTA, 1 mM NaF, 1 mM Na3VO4, 0.5% (v/v) Nonidet P-40, and 1% (v/v) Triton X-100] or in FosRipa buffer (10 mM Tris/HCl pH 7.5, 250 mM NaCl, 0.1% SDS, 1% Nonidet P40, 1% sodium deoxycholate). When needed insoluble pellets were solubilized in Laemmli samples buffer (62.5 mM Tris-HCl pH 6.8, 2.4% SDS, 100 mM DDT, 10% glycerol, 1 mM EDTA, 0.001% bromphenol blue), heated for 5 min at 96° C. and centrifuged briefly before loading. Protein concentrations and Western blotting was performed according to standard procedures. Equal amounts of protein (50 μg) were loaded for separation via 7.5% SDS-PAGE. Mouse monoclonal antisera directed against HIF-1α or survivin were used as primary antibodies and horseradish peroxidase-coupled anti-mouse (Dako) as secondary antibodies.

[5] = DTX treatment alone; cited from earlier work

T1 sequence (P08183 whole entry): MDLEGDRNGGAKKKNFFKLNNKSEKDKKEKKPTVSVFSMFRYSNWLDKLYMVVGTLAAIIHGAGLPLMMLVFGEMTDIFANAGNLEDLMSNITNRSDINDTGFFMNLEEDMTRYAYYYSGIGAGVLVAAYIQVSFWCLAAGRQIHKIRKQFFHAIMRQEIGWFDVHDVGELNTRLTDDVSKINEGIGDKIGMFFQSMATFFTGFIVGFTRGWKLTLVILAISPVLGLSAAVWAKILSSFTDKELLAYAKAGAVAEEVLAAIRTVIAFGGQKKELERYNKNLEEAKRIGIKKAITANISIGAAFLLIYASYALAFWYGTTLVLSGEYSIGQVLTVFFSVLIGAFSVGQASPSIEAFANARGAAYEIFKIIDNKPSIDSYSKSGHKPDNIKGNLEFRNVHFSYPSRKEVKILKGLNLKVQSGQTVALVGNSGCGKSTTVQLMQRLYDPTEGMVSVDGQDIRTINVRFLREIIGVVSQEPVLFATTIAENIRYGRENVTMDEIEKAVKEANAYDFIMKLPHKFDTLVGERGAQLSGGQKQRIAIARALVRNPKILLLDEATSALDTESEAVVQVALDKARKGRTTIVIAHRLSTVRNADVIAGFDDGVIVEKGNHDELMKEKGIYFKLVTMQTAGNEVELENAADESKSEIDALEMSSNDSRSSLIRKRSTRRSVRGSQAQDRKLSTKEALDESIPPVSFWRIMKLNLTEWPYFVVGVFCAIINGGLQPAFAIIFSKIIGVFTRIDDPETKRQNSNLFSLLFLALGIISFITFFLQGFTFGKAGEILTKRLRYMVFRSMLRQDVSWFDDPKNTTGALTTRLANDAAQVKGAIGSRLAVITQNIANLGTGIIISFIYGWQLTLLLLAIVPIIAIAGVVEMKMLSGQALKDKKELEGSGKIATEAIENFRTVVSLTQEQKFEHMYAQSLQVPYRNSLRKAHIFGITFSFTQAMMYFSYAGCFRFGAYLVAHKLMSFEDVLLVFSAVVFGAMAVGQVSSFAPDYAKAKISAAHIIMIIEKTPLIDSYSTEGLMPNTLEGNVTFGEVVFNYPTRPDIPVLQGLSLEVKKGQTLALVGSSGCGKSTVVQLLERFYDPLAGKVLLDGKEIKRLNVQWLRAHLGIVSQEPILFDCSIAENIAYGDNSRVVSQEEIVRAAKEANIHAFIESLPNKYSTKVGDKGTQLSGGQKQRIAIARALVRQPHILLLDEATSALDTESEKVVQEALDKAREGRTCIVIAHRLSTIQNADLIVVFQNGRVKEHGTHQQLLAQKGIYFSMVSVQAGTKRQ

(3H)-VBL accumulation in MDCK-MDR1 cells (P-glycoprotein (Pgp)): promotes (^3H)-VBL accumulation
SMILES: CCCCCCCCCCCCCCCCCCNC(=O)OCC(COP(=O)([O-])OCC[n+]1ccsc1)OC (stereo not drawn) [CV-3988]

SMILES: COc1cc(/C=C/C(=O)CC(=O)/C=C/c2ccc(O)c(OC)c2)ccc1O [curcumin, (1E,6E)-1,7-bis (4-hydroxy-3-methoxyphenyl)-1,6-heptadiene-3,5-dione]
proliferation decreased ([1]; curcumin 10 uM): 23%
effect of co-treatment on DTX efficacy ([1]; curcumin 10 uM + DTX 1 nM, 48 h co-treatment): enhances in a synergistic manner DTX efficacy
proliferation of PA1 cells [2]: suppressed
toxicity for primary fibroblasts (primary fibroblasts): without significant toxicity
growth of all tested tumor lines [3]: strongly impairs the growth
effect of co-treatment on DTX efficacy (U87 glioblastoma cells): enhances in a synergistic manner DTX efficacy
PAF synthesis (PAF synthesis): down-regulation of PAF synthesis
HIF-1α level after curcumin post-treatment (HIF-1α; MCF7, DTX 5 uM 72 h, then 6 h EGF 10 ng/mL + MG-132 with or without curcumin 10 uM): lower amount of HIF-1α
stabilisation, patients [4]: 5/15

SMILES: CC(=O)O[C@@]12CO[C@@H]1C[C@H](O)[C@@]1(C)C(=O)[C@H](O)C3=C(C)[C@@H](OC(=O)[C@H](O)[C@@H](NC(=O)OC(C)(C)C)c4ccccc4)C[C@@](O)([C@@H](OC(=O)c4ccccc4)[C@H]21)C3(C)C [DTX, (2R,3S)-N-carboxy-3-phenylisoserine, N-tert-butyl ester, 13-ester with 5, 20-epoxy-1,2,4,7, 10, 13-hexahydroxytax-11-en-9-one 4-acetate 2-benzoate, trihydrate]
MCF7 survival decreased (MCF7 cells): 92%
survivin expression in surviving cells vs control (survivin): higher amount of survivin than control cells
HIF-1α in resistant sub-populations vs control (HIF-1α; MCF7, DTX at clinical doses): higher amounts of HIF-1α than control cells
HIF-1α in resistant sub-populations vs control (HIF-1α; MCF7, DTX at low concentration): less HIF-1α than control cells
number of objective responses usually observed [5]: around 50%
